System: Jurkat NF-kB luciferase reporter, PMA/ionomycin, luminescence 16 h
Test: blockers of NF-kB activation in T cells – Jurkat, luciferase reporter, luminescence, B- and T-cell, dose response (AID 489004)

Q: `CC(=O)OC[C@]12CCC(C)=C[C@H]1O[C@@H]1[C@H](O)[C@@H](OC(C)=O)[C@@]2(C)[C@]12CO2` was tested. Which IC50 did it give?
A: Its IC50 is < 160 nM.

Source: PubChem BioAssay AID489004 (Sanford-Burnham Center for Chemical Genomics, 2010)
